Values belong to the compound of their own block, whether it stands above or below them.
How the values were obtained:
HaCaT keratinocytes = test: Colony forming (clonogenicity) assay in HaCaT keratinocytes; assay type: cell-based, human; conditions: 10 days
Protocol: HaCaT and human adult epidermal keratinocytes were cultured and DNA synthesis experiments were performed as described previously (26). Cells were plated in 6-well plates at a density of 20 cells/cm^2 in DMEM (Cellgro, Herndon Va.) containing 5% charcoal-treated fetal bovine serum (Hyclone, Logan, Utah), 1% antibiotic solution (PSA, Sigma, St. Louis, […].) and vehicle or secosteroids. Cells were incubated in 37° C. for 10 days with media being changed every 72 hr. Cells were fixed with 4% paraformaldehyde in PBS overnight, stained with 0.5% crystal violet in PBS for 15 min, rinsed and air-dried. The number and size of the colonies were measured using an ARTEK counter 880 (Dynex Technologies Inc., Chantilly, Va.). Colony forming units were calculated as follows: number of colonies (size>0.5 mm) was divided by the number of cells plated and multiplied by 100.

[1] = system: AbC1 hamster melanoma cells; test: Proliferation (DNA synthesis) of AbC1; assay type: cell-based; conditions: AbC1, 72 h
Protocol: To measure DNA synthesis, keratinocytes, melanoma or prostate cancer cells were plated in 96-well plates. After overnight incubation tested compounds were added to the medium to achieve final concentrations 10^−7-10^−10 [M]. 100 μl of medium per well containing vitamin D3 compound was added to the cells. After 36 hours of incubation [3H]-thymidine (specific activity 88.0 Ci/mmol; Amersham Biosciences, Picataway, N.Y., USA) was added at 1 μCi/mL medium. After 12 hours, media were discarded, cells detached with trypsin and harvested on a glass fiber filter (Packard, Meriden, Calif., USA). 3H-radioactivity was measured with a beta counter (Direct Beta-Counter Matrix 9600; Packard).
HaCaT keratinocytes were an incubated for 48 h (FIG. 48A) or 72 h (FIG. 48B) in the presence of graded concentrations of 20(OH)D2 and/or 1,25(OH)2D3. […] Data are shown as mean±SD (n 3); *, p<0.05; **, p<0.01.

[2] = system: human prostate carcinoma cell line PC-3; test: Proliferation of PC-3 prostate carcinoma cells; assay type: cell-based; conditions: PC-3, 72 h
Protocol: Cells were seeded in 96-well plate and incubated with 20-hydroxycholecalciferol in DMEM medium containing 5% FBS for 48 h (FIG. 25A) or 72 h (FIG. 25C) or for 24 h after a 12 h synchronization in serum free medium (FIG. 25D). […] was added for a final 18 h (FIGS. 25A, 25D) or 12 h (FIG. 25C) of incubation or cells were assessed with sulforhodamine assay (FIG. 25C). Data is shown as mean±SEM (n=5; FIG. 24C) or mean±SEM (n=6; FIGS. 24A, 24C, 24D) and was analyzed using GraphPrism 4.0.

NFκB = test: NFκB-Luc reporter in HaCaT keratinocytes; assay type: cell-based, human; conditions: 100 nM
Protocol: HaCaT keratinocytes were transfected with NFκB-Luc construct using Lipofectamine Plus (Invitrogen, Carlsbad, Calif.) in DMEM medium with firefly luciferase reporter gene plasmid and with phRL-TK (expresses Renilla luciferase and serves as normalization control; Promega, Madison, Wis.). After transfection cells were incubated for 24 h in complete medium, and then after change to fresh media treated with drug or vehicle (ethanol) at the concentration of 10 nM for 30 minutes, 1 h, 4 h, 16 h and 24 h. The firefly luciferase and Renilla luciferase signals were recorded with a TD-20/20 luminometer (Turner Designs, Sunnyvale, Calif.); background luminescence was subtracted and the resulting promoter specific firefly signal was divided by the Renilla signal (proportional to the number of transfected cells). The values obtained were divided by the mean of control (untreated) cells.

NFκBI (IκBα) = test: Western blot IκB-α in HaCaT and normal keratinocytes; assay type: cell-based, human; conditions: 100 nM, time dependant
Protocol: HaCaT keratinocytes were treated with 20,23-dihydroxycholecalciferol for indicated time: 0 h, 30 min, 1 h, 4 h, 16 h and 24 h, at the concentration of 10^−7 [M]. Cells were lysed and whole cell extract has been prepared. The equal amount of proteins calculates using Bradford method has been subjected to electrophoresis in SDS-PAGE 7-15% gel and transferred to a PVDF membrane (Millipore). The primary antibodies used were the rabbit polyclonal antibodies of anti+ IκB-α (Santa Cruz), 1:250 dilution, anti-p65 (Santa Cruz) 1:500 dilution and anti-β actin-peroxidase (Sigma) 1:1000 dilution. Secondary antibody used was anti rabbit-HRP (Santa Cruz) 1:7,000 dilution.

[3] = system: PC3 human prostate cancer cells; test: Soft agar colony formation, PC3 prostate cancer; assay type: cell-based; conditions: PC3, dose dependent
Protocol: Growth and survival of prostate cancer cells (PC3) and melanoma cells SKMEL 188 and AbC1 was determined by following their ability to form colonies in soft agar. Cells growing in monolayer culture were trypsinized and resuspended (1,000 cells/well) in 0.25 ml medium containing 0.4% agarose and 5% charcoal stripped serum (HyClone).
Cell suspensions were added to 0.8% agar layer in 24 well plates. Compounds were added from ethanol stocks (100 μM) to final concentrations of 0.1 nM or 10 nM, in 100 μL media. Each condition was tested in quadruplicate. An ethanol solvent control (amount of ethanol equivalent to test) as well as a media-only control was included in the assay. Cells were allowed to grow at 37° with 5% CO2 over two weeks with secosteroids in fresh media (100 μL) being added after every 72 h. Soft agar colonies were scored and stained with 0.5 mg/ml MTT reagent (Promega), 500 μL/well after two weeks. Colonies were then counted under the microscope and number of units was calculated as number of colonies formed divided by the number of cells seeded×100.

[4] = system: mouse erytholeukemia cells (Mel); test: Viable cell count, MEL cells; assay type: cell-based; conditions: 10^-7 M, 7 days
Protocol: K562 human chronic myeloid leukemia (erythroleukemia) and MEL mouse erytholeukemia cells were cultured in RPMI 1640 containing 10% FBS and treated with the drugs at concentrations 0.1 μM. A 0.1% ethanol (EtOH) or 2% DMSO were used as negative or positive control, respectively to estimate the vehicle effect and the ability of the cells to differentiate. Media were exchanged every 72 h and drugs added every day. Growth of cultures was estimated by counting number of viable cells (trypan blue negative cells) as described previously.

SMILES: C=C1/C(=C\C=C2/CCC[C@]3(C)[C@@H]([C@H](C)CCCC(C)(C)O)CC[C@@H]23)C[C@@H](O)C[C@@H]1O [1α,25-dihydroxycholecalciferol, (5Z,7E)-9,10-secocholesta-5,7,10(19)-triene-1α,3β,25-triol, reference compound]
inhibition at 0.01 µM (HaCaT keratinocytes; Homo sapiens, HaCaT, 240 h, 10^−8 M, read-out: inhibition of colony formation): 64%
proliferation [1]: Dose dependent inhibition of the proliferation

EC50 [2]: 570 nM
SMILES: C=C1CC[C@H](O)C/C1=C/C=C1\CCC[C@@]2(C)[C@H]1CC[C@@H]2[C@@](C)(O)CCCC(C)C [20(OH)D3, (5Z,7E)-9,10-secocholesta-5,7,10(19)-triene-3β,20-diol]
inhibition of colony formation (HaCaT keratinocytes; 10^−7 M): 58%
inhibition of colony formation (HaCaT keratinocytes; 10^−8 M): 36%

SMILES: C=C1CC[C@H](O)C/C1=C/C=C1\CCC[C@]2(C)[C@@H](C(C)(O)CC(O)CC(C)C)CC[C@@H]12 (stereo partly drawn) [20,23-dihydroxycholecalciferol, (5Z,7E)-9,10-secocholesta-5,7,10(19)-triene-3β,20,23-triol]
NFκB-Luc activity (NFκB): inhibition
NFκBI (IκBα) protein levels (NFκBI (IκBα)): induced an increase in NFκBI (IκBα) protein levels

SMILES: C=C1CC[C@H](O)C/C1=C/C=C1\CCC[C@]2(C)[C@@H](C(C)=O)CC[C@@H]12 [pD3, (5Z,7E)-3β-hydroxy-9,10-secopregna-5,7,10(19)-trien-20-one]
colony formation on soft agar [3]: suppress colony formation on soft agar
NFκB-Luc activity (NFκB): inhibits NFκB-Luc activity
proliferation of mouse erytholeukemia cells (Mel) [4]: inhibit proliferation

Reference: patent US20120258938A1, “Enzymatic Production or Chemical Synthesis and Uses for 5,7-Dienes and UVB Conversion Products Thereof” (priority 2008, published 2012)
